This note sets out measurements from patent US9511073B2, “Aromatic amides and uses thereof” (TAXIS Pharmaceuticals, Inc., priority 2011, dated 2016).

Converted amounts (≈) assume the structure as drawn.

The test has as its system Staphylococcus aureus (Isolate ID ATCC 29213). Put plainly: Bacterial assay: MIC by broth microdilution or agar dilution (CLSI), S. aureus ATCC 29213. It counts as cell-based. Particulars: Staphylococcus aureus, ATCC29213, read-out: S. aureus MIC (μg/mL) Activity Range, S. aureus (ATCC29213). As for the experimental part: Compounds are tested for antimicrobial activity by susceptibility testing in liquid or on solid media. Minimum inhibitory concentrations (MICs) for compounds against each strain are determined by the broth microdilution or agar dilution method according to the guidelines of the Clinical Laboratories and Standards Institute, formerly the National Committee for Clinical Laboratory Standards (Clinical Laboratories and Standards Institute. Methods for Dilution Antimicrobial Susceptibility Tests for Bacteria That Grow Aerobically; Approved Standard—Seventh Edition. Document M7-A7. CLSI, Wayne, Pa., 2006; Clinical Laboratories and Standards Institute). The bacterial strains tested include S. aureus (Staphylococcus aureus (Isolate ID ATCC 29213)) and an FtsZ mutant of this isolate (FtsZ-G196A Staphylococcus aureus (Isolate ID GG/190723/sa/1.2)). Compound MICs were determined to be in the following activity ranges “A” activity≦0.25 μg/mL; “B” activity>0.25 μg/mL-1.0 μg/mL; “C” activity>1.0 μg/mL-16 μg/mL; “D” activity>16 μg/mL and ND=not determined. The bracketed entries indicate entantiomer(s) and their activity.
(In general: In broth dilution the organism is exposed to a series of concentrations in liquid medium.)
With `CC(Oc1ccc(F)c(C(N)=O)c1F)c1nc(Br)cs1` (stereo not shown) [Compound 2, 3-(1-(4-bromothiazol-2-yl)ethoxy)-2,6-difluorobenzamide], the MIC is 1 to 16 µg/mL (≈ 2.75 to 44.1 µM). As for `CNC(=O)C(Oc1ccc(F)c(C(N)=O)c1F)c1nc(-c2ccc(Cl)cc2)cs1` (stereo not shown) [Compound 34, 3-(1-(4-(4-chlorophenyl)thiazol-2-yl)-2-(methylamino)-2-oxoethoxy)-2,6-difluorobenzamide], the MIC was < 0.25 µg/mL. Take `CN(C)C(=O)OCC(Oc1ccc(F)c(C(N)=O)c1F)c1nc(-c2ccc(C(F)(F)F)cc2)c(Br)o1` (stereo not shown) [Compound 107, 2-(5-bromo-4-(4-(trifluoromethyl)phenyl)oxazol-2-yl)-2-(3-carbamoyl-2,4-difluorophenoxy)ethyl dimethylcarbamate]: the MIC was < 0.25 µg/mL. The figure for `NC(=O)c1c(F)ccc(OC(COC(=O)NCCc2c[nH]cn2)c2nc(-c3ccc(C(F)(F)F)cc3)c(Br)o2)c1F` (stereo not shown) [Compound 162, 2-(5-bromo-4-(4-(trifluoromethyl)phenyl)oxazol-2-yl)-2-(3-carbamoyl-2,4-difluorophenoxy)ethyl (2-(1H-imidazol-4-yl)ethyl)carbamate] is 1 to 16 µg/mL (≈ 1.55 to 24.8 µM); for `NC(=O)c1c(F)ccc(OC(CNC(=O)Cc2cccnc2)c2nc(-c3ccc(C(F)(F)F)cc3)c(Br)o2)c1F` (stereo not shown) [Compound 298, 3-(1-(5-bromo-4-(4-(trifluoromethyl)phenyl)oxazol-2-yl)-2-(2-(pyridin-3-yl)acetamido)ethoxy)-2,6-difluorobenzamide] it is 1 to 16 µg/mL (≈ 1.6 to 25.6 µM). For `C[C@H](O)[C@@H](Oc1ccc(F)c(C(N)=O)c1F)c1nc(-c2ccc(OC(F)F)cc2)c(Br)o1` [Compound 300, 3-((1R,2S)-1-(5-bromo-4-(4-(difluoromethoxy)phenyl)oxazol-2-yl)-2-hydroxypropoxy)-2,6-difluorobenzamide] the value was < 0.25 µg/mL; for `CCCc1oc(C(C)Oc2ccc(F)c(C(N)=O)c2F)nc1-c1ccccc1` (stereo not shown) [Compound 8], 1 to 16 µg/mL (≈ 2.59 to 41.4 µM); for `CN(C)C(=O)C(Oc1ccc(F)c(C(N)=O)c1F)c1nc(-c2ccc(Cl)cc2)cs1` (stereo not shown) [Compound 31, 3-(1-(4-(4-chlorophenyl)thiazol-2-yl)-2-(dimethylamino)-2-oxoethoxy)-2,6-difluorobenzamide], 1 to 16 µg/mL (≈ 2.21 to 35.4 µM). The figure for `NC(=O)c1c(F)ccc(O[C@H](CO)c2nc(-c3ccc(C(F)(F)F)cc3)co2)c1F` [Compound 272B, (R)-2,6-difluoro-3-(2-hydroxy-1-(4-(4-(trifluoromethyl)phenyl)oxazol-2-yl)ethoxy)benzamide] is 1 to 16 µg/mL (≈ 2.33 to 37.4 µM). Turning to `CNC(=O)CCC(Oc1ccc(F)c(C(N)=O)c1F)c1nc(-c2ccc(C(F)(F)F)cc2)c(Br)o1` (stereo not shown) [Compound 93, 3-(1-(5-bromo-4-(4-(trifluoromethyl)phenyl)oxazol-2-yl)-4-(methylamino)-4-oxobutoxy)-2,6-difluorobenzamide], the MIC lay in the range of 0.25 to 1 µg/mL (≈ 0.445 to 1.78 µM). In the case of `NC(=O)c1c(F)ccc(OC(CO)c2nc(-c3ccc(O)cc3)c(Br)o2)c1F` (stereo not shown) [Compound 110, 3-(1-(5-bromo-4-(4-hydroxyphenyl)oxazol-2-yl)-2-hydroxyethoxy)-2,6-difluorobenzamide], the MIC was > 16 µg/mL. Consider `CC(=O)NCC(Oc1ccc(F)c(C(N)=O)c1F)c1nc(-c2ccc(C(F)(F)F)cc2)co1` (stereo not shown) [Compound 282, 3-(2-acetamido-1-(4-(4-(trifluoromethyl)phenyl)oxazol-2-yl)ethoxy)-2,6-difluorobenzamide], for which the MIC is > 16 µg/mL.

Turning to `NC(=O)c1c(F)ccc(OC(CO)c2nc(C3CCOCC3)co2)c1F` (stereo not shown) [Compound 182, 2,6-difluoro-3-(2-hydroxy-1-(4-(tetrahydro-2H-pyran-4-yl)oxazol-2-yl)ethoxy)benzamide], the MIC is > 16 µg/mL. For `CC(=O)NCC(Oc1ccc(F)c(C(N)=O)c1F)c1nc(-c2ccc(C(F)(F)F)cc2)c(Br)o1` (stereo not shown) [Compound 283, 3-(2-acetamido-1-(5-bromo-4-(4-(trifluoromethyl)phenyl)oxazol-2-yl)ethoxy)-2,6-difluorobenzamide] the value was 1 to 16 µg/mL (≈ 1.82 to 29.2 µM); for `NC(=O)c1c(F)ccc(OC(COC(=O)N2CCOCC2)c2nc(-c3ccc(C(F)(F)F)cc3)c(Br)o2)c1F` (stereo not shown) [Compound 160, 2-(5-bromo-4-(4-(trifluoromethyl)phenyl)oxazol-2-yl)-2-(3-carbamoyl-2,4-difluorophenoxy)ethyl morpholine-4-carboxylate], < 0.25 µg/mL; for `NC(=O)c1c(F)ccc(OC(CO)c2nc(-c3cccs3)c(Br)o2)c1F` (stereo not shown) [Compound 243, 3-(1-(5-bromo-4-(thiophen-2-yl)oxazol-2-yl)-2-hydroxyethoxy)-2,6-difluorobenzamide], 1 to 16 µg/mL (≈ 2.25 to 35.9 µM).

For `NC(=O)c1c(F)ccc(OC(COC(=O)CCCN2C(=O)c3ccccc3C2=O)c2nc(-c3ccc(C(F)(F)F)cc3)c(Br)o2)c1F` (stereo not shown) [Compound 69, 2-(5-bromo-4-(4-(trifluoromethyl)phenyl)oxazol-2-yl)-2-(3-carbamoyl-2,4-difluorophenoxy)ethyl 4-(1,3-dioxoisoindolin-2-yl)butanoate], the MIC was 0.25 to 1 µg/mL (≈ 0.346 to 1.38 µM).

For `COc1ccc(CCc2csc(C(CO)Oc3ccc(F)c(C(N)=O)c3F)n2)cc1` (stereo not shown) [Compound 262, 2,6-difluoro-3-(2-hydroxy-1-(4-(4-methoxyphenethyl)thiazol-2-yl)ethoxy)benzamide], the MIC lay within 1 to 16 µg/mL (≈ 2.3 to 36.8 µM). With `Cc1c(CNC(=O)OCC(Oc2ccc(F)c(C(N)=O)c2F)c2nc(-c3ccc(C(F)(F)F)cc3)c(Br)o2)cnn1C` (stereo not shown) [Compound 205, 2-(5-bromo-4-(4-(trifluoromethyl)phenyl)oxazol-2-yl)-2-(3-carbamoyl-2,4-difluorophenoxy)ethyl ((1,5-dimethyl-1H-pyrazol-4-yl)methyl)carbamate], the MIC was in the range of 0.25 to 1 µg/mL (≈ 0.38 to 1.52 µM). For `COc1ccc(-c2coc(C(CO)Oc3ccc(F)c(C(N)=O)c3F)n2)c(F)c1` (stereo not shown) [Compound 228, 2,6-difluoro-3-(1-(4-(2-fluoro-4-methoxyphenyl)oxazol-2-yl)-2-hydroxyethoxy)benzamide] the value was > 16 µg/mL; for `COc1ccc(-c2nc(C(CO)Oc3ccc(F)c(C(N)=O)c3F)oc2Br)nc1` (stereo not shown) [Compound 238, 3-(1-(5-bromo-4-(5-methoxypyridin-2-yl)oxazol-2-yl)-2-hydroxyethoxy)-2,6-difluorobenzamide], > 16 µg/mL. As to `CN(Cc1ccncn1)C(=O)OCC(Oc1ccc(F)c(C(N)=O)c1F)c1nc(-c2ccc(C(F)(F)F)cc2)c(Br)o1` (stereo not shown) [Compound 197, 2-(5-bromo-4-(4-(trifluoromethyl)phenyl)oxazol-2-yl)-2-(3-carbamoyl-2,4-difluorophenoxy)ethyl methyl(pyrimidin-4-ylmethyl)carbamate], the MIC is 0.25 to 1 µg/mL (≈ 0.381 to 1.52 µM).

For the compound `NC(=O)c1c(F)ccc(OC(CO)c2csc(-c3ccc(Cl)cc3)n2)c1F` (stereo not shown) [Compound 258, 3-(1-(2-(4-chlorophenyl)thiazol-4-yl)-2-hydroxyethoxy)-2,6-difluorobenzamide], the MIC was 1 to 16 µg/mL (≈ 2.43 to 38.9 µM). As for `COc1cccc(-c2nc(C(CO)Oc3ccc(F)c(C(N)=O)c3F)oc2Br)c1` (stereo not shown) [Compound 117, 3-(1-(5-bromo-4-(3-methoxyphenyl)oxazol-2-yl)-2-hydroxyethoxy)-2,6-difluorobenzamide], the MIC was > 16 µg/mL. `CN(Cc1cnccn1)C(=O)OCC(Oc1ccc(F)c(C(N)=O)c1F)c1nc(-c2ccc(C(F)(F)F)cc2)c(Br)o1` (stereo not shown) [Compound 192, 2-(5-bromo-4-(4-(trifluoromethyl)phenyl)oxazol-2-yl)-2-(3-carbamoyl-2,4-difluorophenoxy)ethyl methyl(pyrazin-2-ylmethyl)carbamate]: the MIC was 0.25 to 1 µg/mL (≈ 0.381 to 1.52 µM). Turning to `C=CCOC(=O)CCC(=O)OCC(Oc1ccc(F)c(C(N)=O)c1F)c1nc(-c2ccc(C(F)(F)F)cc2)c(Br)o1` (stereo not shown) [Compound 70, allyl (2-(5-bromo-4-(4-(trifluoromethyl)phenyl)oxazol-2-yl)-2-(3-carbamoyl-2,4-difluorophenoxy)ethyl) succinate], the MIC lay within 0.25 to 1 µg/mL. For the compound `Cc1ccc(CNC(=O)OCC(Oc2ccc(F)c(C(N)=O)c2F)c2nc(-c3ccc(C(F)(F)F)cc3)c(Br)o2)n1C` (stereo not shown) [Compound 211, 2-(5-bromo-4-(4-(trifluoromethyl)phenyl)oxazol-2-yl)-2-(3-carbamoyl-2,4-difluorophenoxy)ethyl ((1,5-dimethyl-1H-pyrrol-2-yl)methyl)carbamate], the MIC was 0.25 to 1 µg/mL (≈ 0.38 to 1.52 µM). Take `Cc1ccc(-c2nc(C(CO)Oc3ccc(F)c(C(N)=O)c3F)oc2Br)cn1` (stereo not shown) [Compound 231, 3-(1-(5-bromo-4-(6-methylpyridin-3-yl)oxazol-2-yl)-2-hydroxyethoxy)-2,6-difluorobenzamide]: the MIC was > 16 µg/mL. On to `NC(=O)c1c(F)ccc(OC(CCC(=O)O)c2nc(-c3ccc(C(F)(F)F)cc3)c(Br)o2)c1F` (stereo not shown) [Compound 91, 4-(5-bromo-4-(4-(trifluoromethyl)phenyl)oxazol-2-yl)-4-(3-carbamoyl-2,4-difluorophenoxy)butanoic acid], for which the MIC lay within 1 to 16 µg/mL (≈ 1.82 to 29.1 µM). The figure for `CCOC(=O)C(Oc1ccc(F)c(C(N)=O)c1F)c1nc(C2CCOCC2)co1` (stereo not shown) [Compound 180, ethyl 2-(3-carbamoyl-2,4-difluorophenoxy)-2-(4-(tetrahydro-2H-pyran-4-yl)oxazol-2-yl)acetate] is > 16 µg/mL; for `COCCOc1ccc(-c2nc(C(CO)Oc3ccc(F)c(C(N)=O)c3F)oc2Br)cc1` (stereo not shown) [Compound 242, 3-(1-(5-bromo-4-(4-(2-methoxyethoxy)phenyl)oxazol-2-yl)-2-hydroxyethoxy)-2,6-difluorobenzamide] it is 1 to 16 µg/mL (≈ 1.95 to 31.2 µM).
